According to patent US20110091472A1, “COMPOSITIONS FOR TREATING PSORIASIS” (Novartis Vaccines and Diagnostic, Inc., priority 1999, published 2011):

System: lesional psoriatic skin grafted onto SCID mice
Test: SCID mouse psoriatic skin graft model, methotrexate alone or in combination with low dose 5D12
Assay type: in vivo
Settings: methotrexate 0.1 to 0.4 mg/kg increasing regimen in combination with the isotype control antibody
Protocol: This experiment was conducted, using the mouse model described in Example 1, to quantitate the anti-psoriatic effects of low doses of anti-CD40 antibody. The low-dose treatment with antibody 5D12 consisted of intraperitoneal injections of mice with 0.5 mg/kg 5D12 every other day for two weeks. High-dose treatment consisted of intraperitoneal injections of mice with 5 mg/kg 5D12 every other day for two weeks. […] The treatment control group consisted of mice injected intraperitoneally with isotype control antibody for two weeks. Four weeks after the termination of the treatments, the grafts were harvested and either fixed in formaldehyde or snap-frozen. Fixed material was used for morphological analyses based on H+E staining, and the snap-frozen material used for additional immunohistochemical analyses.
The effects of methotrexate treatment alone or in combination with low dose (0.5 mg/kg) 5D12 treatment were evaluated. An increasing dosing regimen was chosen, starting with 0.1 mg/kg and increasing the dose by 0.05 mg/kg every week until 0.4 mg/kg was reached. The scheme was combined with the application of the isotype control antibody or with the low dose 5D12 treatment schedule. The isotype control treatment served as a negative control and the low dose 5D12 treatment as a positive control.

## CN(Cc1cnc2nc(N)nc(N)c2n1)c1ccc(C(=O)N[C@@H](CCC(=O)O)C(=O)O)cc1 [Methotrexate]
  effects on epidermal thickness (in words): only minimal effects on epidermal thickness
